Assay results reported in patent publication US20260027068A1, “METHODS OF ADM[…]-KETAMINE” (Perception Neuroscience, Inc., priority 2022, published 2026).

System: subjects with TRD
Assay: Adverse events (TEAEs, SAEs) in the TRD study
Format: in vivo, human
Settings: for Number of subjects with TEAE, Mild / Number of subjects with TEAE, Moderate / Number of subjects with TEAE, Severe / Percent of subjects with TEAE, Mild / Percent of subjects with TEAE, Moderate / Percent of subjects with TEAE, Severe: maximum severity
From the text: The definitions of an AE and SAE can be found in Section F. AEs were reported by the subject (or, when appropriate, by a caregiver, surrogate, or the subject's legally authorized representative). The Investigator and any designees were responsible for detecting, documenting, and recording events that meet the definition of an AE or SAE and remained responsible for following up AEs that were serious, considered related to the study treatment or study procedures, or that caused the subject to discontinue from the study.
All AEs were collected from the signing of the ICF until the second follow-up visit (Day 15) at the time points specified in the Schedule of Activities (Section C). Medical occurrences that began before the start of study treatment but after obtaining informed consent were recorded on the Medical History/Current Medical Conditions section of the CRF, not the AE section. All SAEs were recorded and reported to the Sponsor or designee within 24 hours as indicated in Section F. The Investigator submitted any updated SAE data to the Sponsor or designee within 24 hours of it being available. Investigators were not obligated to actively seek AE or SAE information after the conclusion of study participation. However, if the Investigator learns of any SAE, including a death, at any time after a subject has been discharged from the study, and he/she considers the event to be reasonably related to the study treatment or study participation, the Investigator must promptly notify the Sponsor or designee. The method of recording, evaluating, and assessing the causality of AEs and SAEs and the procedures for completing and transmitting SAE reports are provided in Section F.
An AE is any untoward medical occurrence in a patient or subject, temporally associated with the use of study treatment, whether or not considered related to the study treatment. An AE can therefore be any unfavorable and unintended sign (including an abnormal laboratory finding), symptom, or disease (new or exacerbated) temporally associated with the use of study treatment.
If an event is not an AE per the definition above, then it cannot be an SAE even if serious conditions are met (e.g., hospitalization for signs/symptoms of the disease under study). A Serious Adverse Event (SAE) is defined as any untoward medical occurrence that, at any dose: a) results in death; b) is life-threatening; c) requires inpatient hospitalization or prolongation of existing hospitalization; d) results in persistent disability/incapacity; or e) is a congenital anomaly/birth defect. The term “life-threatening” in the definition of “serious” refers to an event in which the subject was at risk of death at the time of the event. […] In general, hospitalization signifies that the subject has been detained (usually involving at least an overnight stay) at the hospital or emergency ward for observation and/or treatment that would not have been appropriate in the physician's office or outpatient setting. Complications that occur during hospitalization are AEs. If a complication prolongs hospitalization or fulfills any other serious criteria, the event is serious. When in doubt as to whether “hospitalization” occurred or was necessary, the AE should be considered serious. […] The term disability means a substantial disruption of a person's ability to conduct normal life functions.
(MedDRA; Version 23.0 or higher). Treatment-emergent adverse events (TEAEs) are AEs with onset or worsening after the start of study treatment. The AE summaries will be primarily based on TEAEs. The number and percentage of subjects with TEAEs will be summarized by treatment group, system organ class, and preferred term for all TEAEs, treatment-related TEAEs, SAEs, serious TEAEs, severe TEAEs, TEAEs of special interest, and all TEAEs leading to study drug discontinuation. All TEAEs will be further summarized by maximum severity and causality. The TEAEs of special interest will be identified in the SAP. […]

## CN[C@@]1(c2ccccc2Cl)CCCCC1=O.Cl [R(−)-ketamine, (2R)-2-(2-chlorophenyl)-2-(methylamino)cyclohexan-1-one]
30 mg (n = 33)
  Number of subjects with Any adverse events (AE): 11
  Number of subjects with Serious TEAEs resulting in treatment discontinuation: 0
  Number of subjects with TEAE with outcome of death: 0
  Number of subjects with TEAEs of COVID-19: 0
  Number of subjects with TEAEs resulting in discontinuation from study: 0
  Number of subjects with TEAEs resulting in treatment discontinuation: 0
  Number of subjects with Treatment-emergent SAE, Mild: 0
  Number of subjects with Treatment-emergent SAE, Moderate: 0
  Number of subjects with Treatment-emergent SAE, Severe: 0
  Number of subjects with Treatment-emergent adverse events (TEAE): 11
  Number of subjects with Treatment-emergent serious adverse events (SAE): 0
  Number of subjects with Treatment-related TEAEs: 10
  Number of subjects with Treatment-related and severe TEAEs: 0
  Number of subjects with Treatment-related treatment-emergent SAEs: 0
  Percent of subjects with Any adverse events (AE): (33) %
  Percent of subjects with Serious TEAEs resulting in treatment discontinuation: (0) %
  Percent of subjects with TEAE with outcome of death: (0) %
  Percent of subjects with TEAEs of COVID-19: (0) %
  Percent of subjects with TEAEs resulting in discontinuation from study: (0) %
  Percent of subjects with TEAEs resulting in treatment discontinuation: (0) %
  Percent of subjects with Treatment-emergent SAE, Mild: (0) %
  Percent of subjects with Treatment-emergent SAE, Moderate: (0) %
  Percent of subjects with Treatment-emergent SAE, Severe: (0) %
  Percent of subjects with Treatment-emergent adverse events (TEAE): (33) %
  Percent of subjects with Treatment-emergent serious adverse events (SAE): (0) %
  Percent of subjects with Treatment-related TEAEs: (30) %
  Percent of subjects with Treatment-related and severe TEAEs: (0) %
  Percent of subjects with Treatment-related treatment-emergent SAEs: (0) %
  Number of subjects with TEAE, Mild: 7
  Number of subjects with TEAE, Moderate: 4
  Number of subjects with TEAE, Severe: 0
  Percent of subjects with TEAE, Mild: (21) %
  Percent of subjects with TEAE, Moderate: (12) %
  Percent of subjects with TEAE, Severe: (0) %
30 mg or 60 mg single IV infusion
  Serious adverse events (SAEs): no serious adverse events
60 mg (n = 35)
  Number of subjects with Any adverse events (AE): 19
  Number of subjects with Serious TEAEs resulting in treatment discontinuation: 0
  Number of subjects with TEAE with outcome of death: 0
  Number of subjects with TEAEs of COVID-19: 0
  Number of subjects with TEAEs resulting in discontinuation from study: 0
  Number of subjects with TEAEs resulting in treatment discontinuation: 0
  Number of subjects with Treatment-emergent SAE, Mild: 0
  Number of subjects with Treatment-emergent SAE, Moderate: 0
  Number of subjects with Treatment-emergent SAE, Severe: 0
  Number of subjects with Treatment-emergent adverse events (TEAE): 18
  Number of subjects with Treatment-emergent serious adverse events (SAE): 0
  Number of subjects with Treatment-related TEAEs: 16
  Number of subjects with Treatment-related and severe TEAEs: 2
  Number of subjects with Treatment-related treatment-emergent SAEs: 0
  Percent of subjects with Any adverse events (AE): (54) %
  Percent of subjects with Serious TEAEs resulting in treatment discontinuation: (0) %
  Percent of subjects with TEAE with outcome of death: (0) %
  Percent of subjects with TEAEs of COVID-19: (0) %
  Percent of subjects with TEAEs resulting in discontinuation from study: (0) %
  Percent of subjects with TEAEs resulting in treatment discontinuation: (0) %
  Percent of subjects with Treatment-emergent SAE, Mild: (0) %
  Percent of subjects with Treatment-emergent SAE, Moderate: (0) %
  Percent of subjects with Treatment-emergent SAE, Severe: (0) %
  Percent of subjects with Treatment-emergent adverse events (TEAE): (51) %
  Percent of subjects with Treatment-emergent serious adverse events (SAE): (0) %
  Percent of subjects with Treatment-related TEAEs: (46) %
  Percent of subjects with Treatment-related and severe TEAEs: (6) %
  Percent of subjects with Treatment-related treatment-emergent SAEs: (0) %
  Number of subjects with TEAE, Mild: 9
  Number of subjects with TEAE, Moderate: 7
  Number of subjects with TEAE, Severe: 2
  Percent of subjects with TEAE, Mild: (26) %
  Percent of subjects with TEAE, Moderate: (20) %
  Percent of subjects with TEAE, Severe: (6) %
